From ChEMBL document CHEMBL4033756, “Identification of Better Pharmacokinetic Benzothiazinone Derivatives as New Antitubercular Agents” (ACS Med Chem Lett, 2017)
Values after ≈ are worked out from the molar mass of the structure shown.

Assays:
[1] = tested on: Mycobacterium tuberculosis; experiment: Antitubercular activity against Mycobacterium tuberculosis H37Rv after 7 days by microplate alamar blue assay; assay type: functional; settings: 168 h
[2] = tested on: Mus musculus; experiment: Acute toxicity in Kunming mouse assessed as mortality at 500 mg/kg, po measured during first 4 hours and then each hour for next 24 hrs and at 8 hourly intervals for following 7 days post dose; assay type: organism-based; settings: in vivo
[3] = Aqueous solubility of the compound at pH 2 after 12 hrs by HPLC-UV method; assay type: physicochemical
[4] = AUC (0 to infinity) in ICR mouse at 50 mg/kg, po by HPLC analysis; assay type: ADME, organism-based; design: dose 50 mg/kg, time infinity, route oral; settings: in vivo
[5] = Elimination half life in ICR mouse at 50 mg/kg, po by HPLC analysis; assay type: ADME, organism-based; settings: in vivo, read-out: beta t1/2 (converted)
[6] = Cytotoxicity against African green monkey Vero cells assessed as cell viability after 72 hrs by MTT assay; assay type: cell-based; settings: chlorocebus sabaeus
[7] = Tmax in ICR mouse at 50 mg/kg, po by HPLC analysis; assay type: ADME, organism-based; settings: in vivo
[8] = Cmax in ICR mouse at 50 mg/kg, po by HPLC analysis; assay type: ADME, organism-based; design: dose 50 mg/kg, route oral; settings: in vivo
[9] = MRT in ICR mouse at 50 mg/kg, po by HPLC analysis; assay type: ADME, organism-based; settings: in vivo

| Compound | MIC90 [1] | solubility at 12 h [3] | CC50 at 72 h [6] | further results |
| --- | --- | --- | --- | --- |
| O=c1nc(N2CCC3(CCN(Cc4ccccc4)CC3)CC2)sc2c([N+](=O)[O-])cc(C(F)(F)F)cc12 | 0.847 µM (≈ 0.439 µg/mL) |  |  |  |
| O=C(CN1CCC2(CC1)CCN(c1nc(=O)c3cc(C(F)(F)F)cc([N+](=O)[O-])c3s1)CC2)OCc1ccccc1 | 0.352 µM (≈ 0.203 µg/mL) |  |  |  |
| O=C(CN1CCC2(CC1)CCN(c1nc(=O)c3cc(C(F)(F)F)cc([N+](=O)[O-])c3s1)CC2)NCc1ccccc1 | 6.42 µM (≈ 3.69 µg/mL) |  |  |  |
| COc1cc(CN2CCC3(CC2)CCN(c2nc(=O)c4cc(C(F)(F)F)cc([N+](=O)[O-])c4s2)CC3)cc(OC)c1 | 0.825 µM (≈ 0.477 µg/mL) |  |  |  |
| COc1ccc(CN2CCC3(CC2)CCN(c2nc(=O)c4cc(C(F)(F)F)cc([N+](=O)[O-])c4s2)CC3)cc1 | 1 µM (≈ 0.551 µg/mL) |  |  |  |
| COc1ccccc1CN1CCC2(CCN(c3nc(=O)c4cc(C(F)(F)F)cc([N+](=O)[O-])c4s3)CC2)C1 | 1.68 µM (≈ 0.896 µg/mL) |  |  |  |
| CCOC(=O)CN1CCC2(CCN(c3nc(=O)c4cc(C(F)(F)F)cc([N+](=O)[O-])c4s3)CC2)C1 | 0.062 µM (≈ 0.031 µg/mL) | 2.04 µg/mL (≈ 4.08 µM) | 266 µM | Activity [2]: Non-Toxic; AUC(0-inf) [4]: 41.8 ng·h/mL; half-life [5]: 3.46 h; Tmax [7]: 0.67 h; Cmax [8]: 17.6 ng/mL; MRT [9]: 5.2 h |
| COc1ccc(C(=O)N2CCC3(CC2)CCN(c2nc(=O)c4cc(C(F)(F)F)cc([N+](=O)[O-])c4s2)CC3)cc1 | 26.6 µM (≈ 15 µg/mL) |  |  |  |
| CCOC(=O)CN1CC2(CCN(c3nc(=O)c4cc(C(F)(F)F)cc([N+](=O)[O-])c4s3)CC2)C1 | 0.444 µM (≈ 0.216 µg/mL) |  |  |  |
| O=c1nc(N2CCC3(CCN(Cc4ccc(Br)cc4)CC3)CC2)sc2c([N+](=O)[O-])cc(C(F)(F)F)cc12 | 0.057 µM (≈ 0.0341 µg/mL) | 1.17 µg/mL (≈ 1.96 µM) | 1680 µM | Activity [2]: Non-Toxic; AUC(0-inf) [4]: 24600 ng·h/mL; half-life [5]: 10.7 h; Tmax [7]: 1 h; Cmax [8]: 1680 ng/mL; MRT [9]: 15.9 h |
| CC(C)(C)OC(=O)N1CC2(CCN(c3nc(=O)c4cc(C(F)(F)F)cc([N+](=O)[O-])c4s3)CC2)C1 | 1.92 µM (≈ 0.963 µg/mL) |  |  |  |
| COc1ccc(CN2CC3(CCN(c4nc(=O)c5cc(C(F)(F)F)cc([N+](=O)[O-])c5s4)CC3)C2)cc1 | 0.113 µM (≈ 0.0588 µg/mL) | 1.2 µg/mL (≈ 2.31 µM) | 78.9 µM |  |
| O=c1nc(N2CCC3(CCN(Cc4ccc(F)cc4)CC3)CC2)sc2c([N+](=O)[O-])cc(C(F)(F)F)cc12 | 0.21 µM (≈ 0.113 µg/mL) |  |  |  |
| CC(C)(C)OC(=O)N1CCC2(CCN(c3nc(=O)c4cc(C(F)(F)F)cc([N+](=O)[O-])c4s3)CC2)C1 | 3.26 µM (≈ 1.68 µg/mL) |  |  |  |
| CCOC(=O)CN1CCC2(CC1)CCN(c1nc(=O)c3cc(C(F)(F)F)cc([N+](=O)[O-])c3s1)CC2 | 0.542 µM (≈ 0.279 µg/mL) |  |  |  |
| O=c1nc(N2CCN(CC3CCCCC3)CC2)sc2c([N+](=O)[O-])cc(C(F)(F)F)cc12 [MACOZINONE] | < 0.035 µM | 0.9 µg/mL (≈ 1.97 µM) | 1400 µM | AUC(0-inf) [4]: 5480 ng·h/mL; half-life [5]: 2.87 h; Tmax [7]: 0.83 h; Cmax [8]: 1300 ng/mL; MRT [9]: 3.73 h |
| O=c1nc(N2CCC3(CCN(Cc4ccc(C(F)(F)F)cc4)CC3)CC2)sc2c([N+](=O)[O-])cc(C(F)(F)F)cc12 | < 0.035 µM | 1.24 µg/mL (≈ 2.11 µM) | 145 µM | Activity [2]: Non-Toxic; AUC(0-inf) [4]: 28700 ng·h/mL; half-life [5]: 3.59 h; Tmax [7]: 1.33 h; Cmax [8]: 2700 ng/mL; MRT [9]: 6.07 h |
| CO[C@H]1/C=C/O[C@@]2(C)Oc3c(C)c(O)c4c(O)c(c(/C=N/N5CCN(C)CC5)c(O)c4c3C2=O)NC(=O)/C(C)=C\C=C\[C@H](C)[C@H](O)[C@@H](C)[C@@H](O)[C@@H](C)[C@H](OC(C)=O)[C@@H]1C [RIFAMPIN] | 0.092 µM (≈ 0.0757 µg/mL) |  |  |  |
| COc1ccc(CN2CCC3(CCN(c4nc(=O)c5cc(C(F)(F)F)cc([N+](=O)[O-])c5s4)CC3)C2)cc1 | 0.112 µM (≈ 0.0599 µg/mL) | 1.4 µg/mL (≈ 2.62 µM) | 86.2 µM |  |
| O=c1nc(N2CCC3(CCN(Cc4cc(F)cc(F)c4)CC3)CC2)sc2c([N+](=O)[O-])cc(C(F)(F)F)cc12 | < 0.035 µM | 0.67 µg/mL (≈ 1.21 µM) | 1170 µM | Activity [2]: Non-Toxic; AUC(0-inf) [4]: 2600 ng·h/mL; half-life [5]: 4.68 h; Tmax [7]: 0.5 h; Cmax [8]: 426 ng/mL; MRT [9]: 5.8 h |
| O=c1nc(N2CCC3(CCN(Cc4cccc(F)c4)CC3)CC2)sc2c([N+](=O)[O-])cc(C(F)(F)F)cc12 | 0.054 µM (≈ 0.029 µg/mL) | 1.13 µg/mL (≈ 2.11 µM) | 1400 µM | Activity [2]: Non-Toxic; AUC(0-inf) [4]: 4870 ng·h/mL; half-life [5]: 3.53 h; Tmax [7]: 0.67 h; Cmax [8]: 901 ng/mL; MRT [9]: 4.83 h |
| O=c1nc(N2CCC3(CC2)CN(CC2CCCCC2)C3)sc2c([N+](=O)[O-])cc(C(F)(F)F)cc12 | 0.468 µM (≈ 0.232 µg/mL) |  |  |  |
| NNC(=O)c1ccncc1 [ISONIAZID] | 0.284 µM (≈ 0.0389 µg/mL) |  |  |  |
| O=c1nc(N2CCC3(CCN(CC4CCCCC4)CC3)CC2)sc2c([N+](=O)[O-])cc(C(F)(F)F)cc12 | 0.944 µM (≈ 0.495 µg/mL) |  |  |  |
| O=c1nc(N2CCC3(CCN(Cc4ccc(F)cc4)C3)CC2)sc2c([N+](=O)[O-])cc(C(F)(F)F)cc12 | < 0.035 µM | 1.12 µg/mL (≈ 2.14 µM) | 811 µM | AUC(0-inf) [4]: 6020 ng·h/mL; half-life [5]: 3.11 h; Tmax [7]: 1.08 h; Cmax [8]: 1230 ng/mL; MRT [9]: 4 h |
| CN1CCC2(CC1)CCN(c1nc(=O)c3cc(C(F)(F)F)cc([N+](=O)[O-])c3s1)CC2 | 33.5 µM (≈ 14.8 µg/mL) |  |  |  |
| O=c1nc(N2CCC3(CCN(Cc4ccccc4)C3)CC2)sc2c([N+](=O)[O-])cc(C(F)(F)F)cc12 | 0.06 µM (≈ 0.0303 µg/mL) | 1.56 µg/mL (≈ 3.09 µM) | 289 µM |  |
| O=c1nc(N2CCC3(CCN(CC4CCCCC4)C3)CC2)sc2c([N+](=O)[O-])cc(C(F)(F)F)cc12 | 0.22 µM (≈ 0.112 µg/mL) |  |  |  |
| CCN(CC)C(=O)CN1CCC2(CC1)CCN(c1nc(=O)c3cc(C(F)(F)F)cc([N+](=O)[O-])c3s1)CC2 | 6.32 µM (≈ 3.42 µg/mL) |  |  |  |
| CC(C)(C)OC(=O)N1CCC2(CC1)CCN(c1nc(=O)c3cc(C(F)(F)F)cc([N+](=O)[O-])c3s1)CC2 | 0.219 µM (≈ 0.116 µg/mL) |  |  |  |
